{
  "source": "ChEMBL document CHEMBL3784917",
  "about": "“Recent Progress in Histone Demethylase Inhibitors” (J Med Chem, 2016)",
  "key": {"[1]": {"biological_target": "T1, Lysine-specific demethylase 3A (Homo sapiens, UniProt Q9Y4C1)", "T1 sequence (Q9Y4C1 whole entry)": "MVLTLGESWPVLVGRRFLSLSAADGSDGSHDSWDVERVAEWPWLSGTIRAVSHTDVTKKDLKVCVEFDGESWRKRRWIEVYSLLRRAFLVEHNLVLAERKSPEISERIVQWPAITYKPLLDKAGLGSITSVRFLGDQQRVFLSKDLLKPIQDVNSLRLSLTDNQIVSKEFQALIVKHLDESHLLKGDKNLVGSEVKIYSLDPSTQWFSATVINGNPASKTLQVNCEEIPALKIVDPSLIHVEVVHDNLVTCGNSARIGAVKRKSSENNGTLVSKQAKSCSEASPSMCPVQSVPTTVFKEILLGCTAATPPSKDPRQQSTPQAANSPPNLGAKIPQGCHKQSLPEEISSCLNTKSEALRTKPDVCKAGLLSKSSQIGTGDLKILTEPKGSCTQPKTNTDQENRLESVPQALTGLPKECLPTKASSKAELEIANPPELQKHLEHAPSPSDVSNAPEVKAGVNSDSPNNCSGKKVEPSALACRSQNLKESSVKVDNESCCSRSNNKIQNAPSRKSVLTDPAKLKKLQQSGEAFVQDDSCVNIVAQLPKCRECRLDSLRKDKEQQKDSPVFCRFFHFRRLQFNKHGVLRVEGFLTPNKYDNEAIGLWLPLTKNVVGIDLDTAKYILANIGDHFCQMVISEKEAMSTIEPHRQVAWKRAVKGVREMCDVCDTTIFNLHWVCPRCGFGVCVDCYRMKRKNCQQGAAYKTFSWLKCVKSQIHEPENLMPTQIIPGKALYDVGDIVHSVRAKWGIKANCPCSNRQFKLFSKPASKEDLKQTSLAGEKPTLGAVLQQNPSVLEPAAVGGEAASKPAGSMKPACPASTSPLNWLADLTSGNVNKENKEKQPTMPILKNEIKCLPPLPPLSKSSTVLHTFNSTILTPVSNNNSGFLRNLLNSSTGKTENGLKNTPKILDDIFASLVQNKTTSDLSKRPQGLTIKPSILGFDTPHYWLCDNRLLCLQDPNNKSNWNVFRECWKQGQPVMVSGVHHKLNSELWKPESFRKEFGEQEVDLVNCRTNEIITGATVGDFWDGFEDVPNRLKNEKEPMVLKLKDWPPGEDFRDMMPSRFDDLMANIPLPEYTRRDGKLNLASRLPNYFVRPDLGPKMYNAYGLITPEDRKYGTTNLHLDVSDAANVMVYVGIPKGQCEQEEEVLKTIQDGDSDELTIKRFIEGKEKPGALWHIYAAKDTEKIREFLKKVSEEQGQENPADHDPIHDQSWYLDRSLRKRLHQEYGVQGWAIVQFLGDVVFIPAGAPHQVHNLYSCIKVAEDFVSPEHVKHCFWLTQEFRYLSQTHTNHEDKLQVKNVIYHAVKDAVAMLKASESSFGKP", "test": "Inhibition of KDM3A (unknown origin) preincubated for 15 mins followed by histone substrate addition measured after 1 hr by alphascreen assay"}, "[2]": {"biological_target": "T2, Lysine-specific demethylase 4A (Homo sapiens, UniProt O75164)", "T2 sequence (O75164 whole entry)": "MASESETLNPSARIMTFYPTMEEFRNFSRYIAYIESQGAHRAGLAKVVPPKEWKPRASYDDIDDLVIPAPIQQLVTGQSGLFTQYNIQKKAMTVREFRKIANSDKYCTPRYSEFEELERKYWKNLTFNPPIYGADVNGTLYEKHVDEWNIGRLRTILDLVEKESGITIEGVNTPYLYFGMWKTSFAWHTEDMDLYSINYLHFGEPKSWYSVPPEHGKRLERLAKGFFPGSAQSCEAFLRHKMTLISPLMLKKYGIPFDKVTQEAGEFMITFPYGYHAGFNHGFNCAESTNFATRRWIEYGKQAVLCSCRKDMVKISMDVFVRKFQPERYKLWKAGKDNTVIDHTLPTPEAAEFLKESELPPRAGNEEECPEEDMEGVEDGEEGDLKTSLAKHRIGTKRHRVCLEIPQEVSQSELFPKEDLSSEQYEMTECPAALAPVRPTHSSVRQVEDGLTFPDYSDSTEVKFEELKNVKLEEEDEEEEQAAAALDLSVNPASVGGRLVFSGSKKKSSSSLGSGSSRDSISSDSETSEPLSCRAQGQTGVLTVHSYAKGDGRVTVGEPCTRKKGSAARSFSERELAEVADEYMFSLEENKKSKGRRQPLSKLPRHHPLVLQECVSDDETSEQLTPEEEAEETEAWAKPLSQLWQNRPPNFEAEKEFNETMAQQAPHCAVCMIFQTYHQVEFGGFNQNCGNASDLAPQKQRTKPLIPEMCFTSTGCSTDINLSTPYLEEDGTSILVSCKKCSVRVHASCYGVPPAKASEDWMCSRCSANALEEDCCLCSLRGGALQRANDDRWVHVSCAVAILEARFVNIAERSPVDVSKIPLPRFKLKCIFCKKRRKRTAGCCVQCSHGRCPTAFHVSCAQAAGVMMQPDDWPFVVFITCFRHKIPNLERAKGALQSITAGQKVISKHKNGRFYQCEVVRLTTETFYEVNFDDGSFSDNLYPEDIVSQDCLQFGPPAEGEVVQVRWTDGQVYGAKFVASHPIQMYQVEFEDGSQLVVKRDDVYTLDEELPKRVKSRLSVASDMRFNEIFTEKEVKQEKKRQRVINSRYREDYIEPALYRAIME", "test": "Inhibition of full-length FLAG-tagged KDM4A (unknown origin) expressed in human HeLa cells assessed as increase in H3K9me3 level after 24 hrs by DAPI staining based immunofuorescence assay", "format": "cell-based"}, "[3]": {"biological_target": "T3, Lysine-specific demethylase 4E (Homo sapiens, UniProt B2RXH2)", "T3 sequence (B2RXH2 whole entry)": "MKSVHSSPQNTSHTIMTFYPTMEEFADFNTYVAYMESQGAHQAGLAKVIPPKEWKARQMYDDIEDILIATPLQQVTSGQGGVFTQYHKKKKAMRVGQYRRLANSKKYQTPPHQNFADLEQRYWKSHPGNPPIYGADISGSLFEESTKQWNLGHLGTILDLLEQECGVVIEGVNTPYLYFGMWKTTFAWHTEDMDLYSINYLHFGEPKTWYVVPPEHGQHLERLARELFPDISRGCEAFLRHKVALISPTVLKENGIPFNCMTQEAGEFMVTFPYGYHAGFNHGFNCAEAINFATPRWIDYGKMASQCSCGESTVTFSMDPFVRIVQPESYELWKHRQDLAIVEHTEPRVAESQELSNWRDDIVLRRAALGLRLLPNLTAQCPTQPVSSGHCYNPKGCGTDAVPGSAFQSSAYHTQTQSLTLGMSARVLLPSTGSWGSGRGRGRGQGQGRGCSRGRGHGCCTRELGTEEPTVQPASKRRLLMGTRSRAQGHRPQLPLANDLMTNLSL", "test": "Inhibition of KDM4E (unknown origin) preincubated for 15 mins followed by histone substrate addition measured after 1 hr by alphascreen assay"}, "[4]": {"biological_target": "T2, Lysine-specific demethylase 4A", "test": "Inhibition of KDM4A in human MCF7 cells assessed as increase in H3K9me3 level after 24 hrs by DAPI staining based immunofuorescence assay", "format": "cell-based"}, "[5]": {"biological_target": "T2, Lysine-specific demethylase 4A"}, "[6]": {"biological_target": "T3, Lysine-specific demethylase 4E", "test": "Inhibition of KDM4E (unknown origin) after 24 hrs by alphascreen assay"}, "[7]": {"test": "Antiproliferative activity against human SU-DHL6 cells assessed as reduction in cell viability after 120 hrs by ATPlite assay", "format": "functional, cell-based", "settings": "SU-DHL-6, 120 h"}, "[8]": {"test": "Antiproliferative activity against human BT474 cells assessed as reduction in cell viability after 120 hrs by ATPlite assay", "format": "functional, cell-based", "settings": "BT-474, 120 h"}, "[9]": {"test": "Antiproliferative activity against human NALM6 cells assessed as reduction in cell viability after 120 hrs by ATPlite assay", "format": "functional, cell-based", "settings": "NALM-6, 120 h"}},
  "data": [
    {"smiles": "Cc1ccsc1C(NC(=O)c1ccccc1)c1cc(Cl)c2cccnc2c1O", "note": "(racemic)", "values": [
      {"measurement": "IC50", "setting": "[1]", "result": 191, "unit": "µM"},
      {"measurement": "EC50", "setting": "[2]", "result": 9, "unit": "µM"},
      {"measurement": "IC50", "setting": "[3]", "result": 5, "unit": "µM"},
      {"measurement": "EC50", "setting": "[4]", "result": 12, "unit": "µM"}
    ]},
    {"smiles": "CCCCCCCCOC(=O)c1ccc(O)c2ncccc12", "values": [
      {"measurement": "EC50", "setting": "[5]", "result": 3.8, "unit": "µM"},
      {"measurement": "IC50", "setting": "[6]", "result": 45, "unit": "µM"}
    ]},
    {"smiles": "CCN(CCN(C)C)C(=O)CNCc1cc(CNC(=O)C(F)(F)F)ccn1", "values": [
      {"measurement": "EC50", "setting": "[7]", "result": "< 0.25", "unit": "µM"}
    ]},
    {"smiles": "CCN(CC)CCCCNCc1cc(C=O)ccn1", "values": [
      {"measurement": "EC50", "setting": "[8]", "result": "< 0.25", "unit": "µM"},
      {"measurement": "EC50", "setting": "[9]", "result": "< 0.25", "unit": "µM"}
    ]}
  ]
}
